Results as given in paper PMC4947679, “Quantitative In Vitro and In Vivo Evaluation of Intestinal and Blood-Brain Barrier Transport Kinetics of the Plant N-Alkylamide Pellitorine” (BioMed Research International, 2016).
Where two headings read alike, the source gives them in different places.

Tests used:
[1] = Caco-2 cell permeability assay; format: in vitro ADME, human; details: human, Caco-2
Description: (§1) The Caco-2 cell line originated from a human colorectal carcinoma and was maintained in Dulbecco's modified Eagle's medium (DMEM) (95% humidity, 37°C, 5% CO2), supplemented with 10% (V/V) fetal bovine serum, 100 U/mL penicillin and 100 μg/mL streptomycin, 2 mM L-glutamine, and 1% nonessential amino acids (all from Invitrogen/GIBCO, Ghent, Belgium).
(§2) The Caco-2 cell intestinal model was used to investigate the gut mucosa permeation of pellitorine. On each Transwell (Corning Costar, New York, USA) membrane insert filter (0.4 μm pore size, 12 mm filter diameter), the cells were seeded at a density of 2.6 · 10^5 cells/cm^2 cells and cultivated in the described supplemented DMEM. Every second day, the medium was changed. During a period of 21–29 days, the cells were grown and differentiated until monolayers were formed. The integrity of the monolayers was checked via the measurement of transepithelial electrical resistance (TEER) of the monolayers with a Millicell-ERS system (Millipore Corp., Bedford, MA, USA) before and after the transport experiments. The experiments were performed in duplicate for each dose solution. Transport experiments were carried out according to Hubatsch et al. in two directions: from the apical-to-basolateral (ab) direction and from the basolateral-to-apical (ba) direction in Hanks' Balanced Salt solution. Two dose solutions of pellitorine (in Anacyclus pyrethrum extract) of 1 μg/mL in 0.5% EtOH (further indicated as DS1) and of 56 μg/mL in 0.5% of a mixture of vitamin E-TPGS (33.3%), EtOH (11.1%), PEG 400 (33.3%), and PG (22.2%) (further indicated as DS2) dissolved in HBSS were tested.
(§3) Final apical volumes of 0.4 mL and basolateral volumes of 1.2 mL were used for 12 mm filter supports during the transport experiment. After 15, 30, 60, 90, and 120 min, samples were taken from the receiver compartment (basolateral to apical transport: 100 μL, apical-to-basolateral transport: 300 μL) and immediately replaced by fresh HBSS. […] Pellitorine was quantified using a ultraperformance liquid chromatography-tandem mass spectrometry (UPLC-MS^2) method as described below.
(§4) The apparent permeability coefficient (P app in cm/s) of pellitorine in DS2 was calculated using a sink condition equation, while P app of pellitorine in DS1 was calculated using a nonsink equation. From Fick's first law, J = −D × [dC(x)]/dx (J is the flux or transfer rate along the donor-to-receptor side, D is the diffusion coefficient, x is the distance from the donor compartment, and C(x) is the concentration in the barrier at the coordinate x in the barrier), the following differential equation is derived: dM r(t)/dt = P app × A × [C d(t) − C r(t)], in which P app is the apparent permeability coefficient (a product of distribution coefficient with diffusion coefficient divided by the barrier thickness), M r is the amount of substance in the receiver chamber, A is the cross-sectional area of the barrier, C d is the donor concentration, and C r is the receiver concentration. This differential equation can be solved to calculate P app using different initial conditions depending on sink or nonsink conditions. In case of sink conditions, the following equation was obtained from the amount of compound transported per time dM r(t)/dt with the receiver concentration set to zero [18, 20]:(1) Mrt/Cd,0=Papp×A×t+c, where P app is the apparent permeability coefficient (cm/s), A is the surface area of the filter (1.12 cm^2), C d,0 is the initial concentration in the donor chamber (μg/mL), t is the time (s), and c is a constant term which vanishes, since M r is initially zero at t = 0.
(§5) The donor concentration at each time point was calculated by taking into account the amount of compound which already permeated through the cell monolayer during that time interval. In this way, the reduction in donor concentration after every sampling was also taken into account.

Caco-2 cell monolayer = test: Caco-2 cell permeability assay; format: in vitro ADME, human
Description: as §1, §2, §3, §4, §5

[2] = Brain-to-blood transport after intracerebroventricular injection in mice; format: in vivo, ICR-CD-1 mice
Description: To evaluate the efflux of pellitorine out of the brain into the blood, a previously described in vivo method was used. Briefly, the ICR-CD-1 mice were anesthetized with 40% (w/V) urethane solution (3 g/kg). Then, the skin of the skull was removed and a hole was made into the lateral ventricle using a 22 G needle marked with tape at 2 mm at the following coordinates: 1 mm lateral and 0.34 mm posterior to the bregma. Using a syringe pump (KDS100, KR analytical, Cheshire, UK), 1 μL of the 1.8 mg/mL pellitorine dose solution as used for the blood-to-brain influx experiment was injected intracerebroventriculary (ICV) at a speed of 360 μL/h for 10 s. […] Just before decapitation, blood was collected from the abdominal aorta and serum was obtained by centrifuging the blood at 10 000 ×g during 15 min at 21°C. Thereafter, brains were collected. The natural logarithm of the pellitorine concentration in brain (ng/g) was plotted versus time. The efflux rate constant k out (min^−1) is obtained from the negative value of the slope of the linear regression, applying first-order kinetics. From k out, the efflux brain half-life (t 1/2,brain) (min) is calculated as follows: t 1/2,brain = ln(2)/k out.

[3] = design: method as in PMID 25481393; details: cited from earlier work
[4] = apical-to-basolateral, DS1, after 120 min
[5] = apical-to-basolateral, DS2, after 120 min
[6] = basolateral-to-apical, DS1, after 120 min
[7] = basolateral-to-apical, DS2, after 120 min

Papp A→B at 120 min, 1 μg/mL ([1]; DS1: 1 μg/mL pellitorine (in Anacyclus pyrethrum extract) in 0.5% EtOH in HBSS, nonsink equation, mean ± SD, n = 2, read-out: apparent permeability coefficient (P app), apical-to-basolateral transport): 48.08 ± 0.08 ×10⁻⁶ cm/s
Papp B→A at 120 min, 1 μg/mL ([1]; DS1, mean ± SD, n = 2, read-out: apparent permeability coefficient (P app), basolateral-to-apical transport): 57.5 ± 6.2 ×10⁻⁶ cm/s
Papp A→B at 120 min, 56 μg/mL ([1]; DS2: 56 μg/mL pellitorine (in Anacyclus pyrethrum extract) in 0.5% vitamin E-TPGS/EtOH/PEG 400/PG mixture in HBSS, sink equation, mean ± SD, n = 2, read-out: apparent permeability coefficient (P app), apical-to-basolateral transport): 5.5 ± 0.06 ×10⁻⁶ cm/s
Papp B→A at 120 min, 56 μg/mL ([1]; DS2, mean ± SD, n = 2, read-out: apparent permeability coefficient (P app), basolateral-to-apical transport): 2.8 ± 0.09 ×10⁻⁶ cm/s
recovery at 120 min ([1]; after 120 min, read-out: mass balance, total recovery): 104 to 132%
uptake ratio (P app,ab/P app,ba) (Caco-2 cell monolayer; DS1): 0.84
uptake ratio (P app,ab/P app,ba) (Caco-2 cell monolayer; DS2): 1.96
amount of pellitorine permeated (Caco-2 cell monolayer; [4]): 0.31 µg
percentage of applied pellitorine permeated (Caco-2 cell monolayer; [4]): 56.7%
amount of pellitorine permeated (Caco-2 cell monolayer; [5]): 2.24 µg
percentage of applied pellitorine permeated (Caco-2 cell monolayer; [5]): 9.98%
amount of pellitorine permeated (Caco-2 cell monolayer; [6]): 0.39 µg
percentage of applied pellitorine permeated (Caco-2 cell monolayer; [6]): 23.7%
amount of pellitorine permeated (Caco-2 cell monolayer; [7]): 1.24 µg
percentage of applied pellitorine permeated (Caco-2 cell monolayer; [7]): 1.84%
ratio of P app values between the apical-to-basolateral and the basolateral-to-apical direction or vice versa (Caco-2 cell monolayer; both dose solutions): ≤ 2
efflux transfer constant k out [2]: 0.05 min⁻¹
half-life ([2]; female, ICR-CD-1, mouse, icv or intrathecal, 1.8 μg/mouse, read-out: efflux brain half-life t 1/2,brain): 13.8 min
Compound: CCCCC/C=C/C=C/C(=O)NCC(C)C [pellitorine, deca-2E,4E-dienoic acid isobutylamide]
aqueous permeability coefficient K p,aq ([3]; pellitorine from crude plant extract): 2.3 10^−4 cm/h
aqueous permeability coefficient K p,aq ([3]; purified pellitorine): 1.1 10^−4 cm/h
